Consider 28 compounds from patent US8536202B2, “Triazole-substituted anthranilamides as pesticides” (Bayer Cropscience AG, priority 2010, dated 2013).

Data set [1] can be described thus: log P determination by HPLC on reversed-phase columns (EEC Directive 79/831 Annex V.A8). In kind it is physicochemical. The note with it: pH 2.7. Summed up:
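log P from reversed-phase LC-MS retention at pH 2.7, 0.1% formic acid water/acetonitrile gradient 10–95% acetonitrile. Calibrated against C3–C16 unbranched alkan-2-ones, interpolating linearly between adjacent alkanones.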

The test system of data set [2] is green peach aphid (Myzus persicae). As to the kind of experiment: Myzus test (MYZUPE spray treatment), Use Example 4. In kind it is in vivo. The note with it: 144 h, after 6 days; for pest or weed control at 100 g/ha: read-out: activity in %. As to the method: Solvents: 78 parts by weight of acetone • • 1.5 parts by weight of dimethylformamide
Emulsifier: 0.5 part by weight of alkylaryl polyglycol ether
An appropriate preparation of active compound is prepared by mixing 1 part by weight of active compound with the stated amounts of solvents and emulsifier and diluting the concentrate with emulsifier-containing water to the desired concentration.
Leaf discs of Chinese cabbage (Brassica pekinensis) infested by all stages of the green peach aphid (Myzus persicae) are sprayed with a preparation of active compound at the desired concentration.
After 6 days, the activity in % is ascertained. Here, 100% means that all of the aphids have been killed; 0% means that no aphids have been killed.

Data set [3] relates to caterpillars of the armyworm (Spodoptera frugiperda). As to the kind of experiment: Spodoptera frugiperda test (SPODFR spray treatment). It counts as in vivo. The note with it: 168 h, 100 g/ha, after 7 days, read-out: activity in %. Summed up:
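Maize leaf discs sprayed with compound diluted in emulsifier-containing water (acetone/DMF solvent, alkylaryl polyglycol ether emulsifier), dried, then infested with armyworm caterpillars. Kill scored after 7 days as % mortality, 100% = all caterpillars dead, 0% = none.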

Data set [4] deals with larvae of the mustard beetle (Phaedon cochleariae). As to the kind of experiment: Phaedon test (PHAECO spray treatment). Conditions: 168 h, 100 g/ha, after 7 days, read-out: activity in %. In kind it is in vivo. The gist of the method: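 Compound dissolved in acetone/dimethylformamide with alkylaryl polyglycol ether emulsifier, then diluted with emulsifier-containing water to test concentration for spray treatment of Phaedon cochleariae larvae. Activity scored after 7 days as % larvae killed (100% = all dead, 0% = none).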

The mark [5] stands for this setting: reversed-phase C18 HPLC column, HPLC on reversed-phase columns (C 18), EEC Directive 79/831 Annex V.A8, read-out: logP.

Like-named read-outs stand apart in the source and are kept apart here.

For `CNC(=O)c1cc(C#N)cc(C)c1NC(=O)c1cc(Cn2cc(C(F)(F)F)nn2)nn1-c1ncccc1Br` [Example 5], in data set [1] (setting [5]), the chromatographic logP is 2.66. In addition, the pest or weed control at 100 g/ha in data set [2], in data set [3] and in data set [4] was 100% each time.
In the case of `Cc1cc(C#N)cc(C(=O)NC(C)C)c1NC(=O)c1cc(Cn2cc(C(F)(F)F)nn2)nn1-c1ncccc1Br` [Example 6], the chromatographic logP in data set [1] (setting [5]) worked out at 3.11. Also, the values for the pest or weed control at 100 g/ha in data set [2], in data set [3] and in data set [4] were 90%, 100% and 100%, respectively.
As for `CCNC(=O)c1cc(C#N)cc(C)c1NC(=O)c1cc(Cn2cc(C(F)(F)F)nn2)nn1-c1ncccc1Br` [Example 8], the chromatographic logP in data set [1] (setting [5]) is 2.88. Also, the pest or weed control at 100 g/ha in data set [2] worked out at 80%; in data set [3], 100%; in data set [4], 100%.
As to `CNC(=O)c1cc(C#N)cc(C)c1NC(=O)c1cc(Cn2ncc(C(F)(F)F)n2)nn1-c1ncccc1Br` [Example 9], the chromatographic logP in data set [1] (setting [5]) worked out at 2.33. In addition, the pest or weed control at 100 g/ha in data set [2], in data set [3] and in data set [4] was 100% each time.
In the case of `Cc1cc(C#N)cc(C(=O)NC2CC2)c1NC(=O)c1cc(Cn2ncc(C(F)(F)F)n2)nn1-c1ncccc1Br` [Example 11], in data set [1] (setting [5]), the chromatographic logP is 2.55. In addition, the pest or weed control at 100 g/ha in data set [2], in data set [3] and in data set [4] was 100% in each case.
In the case of `CCNC(=O)c1cc(C#N)cc(C)c1NC(=O)c1cc(Cn2ncc(C(F)(F)F)n2)nn1-c1ncccc1Br` [Example 12], in data set [1] (setting [5]), the chromatographic logP was 2.53. The pest or weed control at 100 g/ha in data set [2], in data set [3] and in data set [4] was 100% each time.
The compound `CNC(=O)c1cc(Cl)cc(C)c1NC(=O)c1cc(Cn2ncc(C3CC3)n2)nn1-c1ncccc1Cl` [Example 21] returned a chromatographic logP in data set [1] of 2.85. For the same compound, the pest or weed control at 100 g/ha in data set [2], in data set [3] and in data set [4] was 100% throughout.
Consider `Cc1cc(C#N)cc(C(=O)NC(C)(C)C)c1NC(=O)c1cc(Cn2cc(-c3ccc(F)cc3)nn2)nn1-c1ncccc1Cl` [Example 53], for which, in data set [1], the chromatographic logP was 3.17. The pest or weed control at 100 g/ha in data set [2] was determined as 80%; in data set [3], 100%; in data set [4], 100%.
In turn, `Cc1cc(C#N)cc(C(=O)NC(C)(C)C)c1NC(=O)c1cc(Cn2cc(-c3ccc(Cl)cc3)nn2)nn1-c1ncccc1Cl` [Example 54] showed a chromatographic logP in data set [1] of 3.54. The figures for the pest or weed control at 100 g/ha in data set [2], in data set [3] and in data set [4] were 80%, 100% and 100%, respectively.
In data set [1], `CNC(=O)c1cc(C#N)cc(C)c1NC(=O)c1cc(Cn2nnc3cc(C(F)(F)F)ccc32)nn1-c1ncccc1Cl` [Example 101] returned a chromatographic logP of 2.76. Also, the pest or weed control at 100 g/ha in data set [2], in data set [3] and in data set [4] was 100% each time.
For the compound `Cc1cc(C#N)cc(C(=O)NC(C)(C)C)c1NC(=O)c1cc(Cn2nnc3c(Cl)cc(C(F)(F)F)cc32)nn1-c1ncccc1Cl` [Example 110], in data set [1] (setting [5]), the chromatographic logP was found to be 3.96. For the same compound, the results for the pest or weed control at 100 g/ha in data set [2], in data set [3] and in data set [4] were 90%, 100% and 100%, respectively.
Regarding `Cc1cc(Cl)cc(C(=O)NC2CC2)c1NC(=O)c1cc(Cn2nccn2)nn1-c1ncccc1Cl` [Example 120], the chromatographic logP in data set [1] came out at 2.26. The pest or weed control at 100 g/ha in data set [2] turned out to be 90%; in data set [3], 100%; in data set [4], 100%.
The compound `Cc1cc(Cl)cc(C(=O)NC(C)(C)C)c1NC(=O)c1cc(Cn2nccn2)nn1-c1ncccc1Cl` [Example 121] gave a chromatographic logP in data set [1] of 2.87. Also, the pest or weed control at 100 g/ha in data set [2], in data set [3] and in data set [4] was 100% each time.
In the case of `Cc1cc(C#N)cc(C(N)=O)c1NC(=O)c1cc(Cn2ncc(C(F)(F)F)n2)nn1-c1ncccc1Cl` [Example 123], in data set [1], the chromatographic logP was found to be 2.41. For the same compound, the pest or weed control at 20 g/ha in data set [2] (20 g/ha) is 100%. Further, the pest or weed control at 100 g/ha in data set [3] and in data set [4] was 100% each time.
With `Cc1cc(C#N)cc(C(=O)NC(C)C2CC2)c1NC(=O)c1cc(Cn2ncc(C(F)(F)F)n2)nn1-c1ncccc1Cl` (stereo not shown) [Example 125], the chromatographic logP in data set [1] is 3.39. For the same compound, the pest or weed control at 100 g/ha in data set [2], in data set [3] and in data set [4] was 100% each time.
Take `Cc1cc(C#N)cc(C(=O)NC2CC2)c1NC(=O)c1cc(Cn2ncc(C(F)(F)F)n2)nn1-c1ncccc1Cl` [Example 126]: the chromatographic logP in data set [1] turned out to be 2.9. Besides, the pest or weed control at 100 g/ha was found to be 100% in data set [2], 83% in data set [3] and 100% in data set [4].
In the case of `CCNC(=O)c1cc(C#N)cc(C)c1NC(=O)c1cc(Cn2ncc(C(F)(F)F)n2)nn1-c1ncccc1Cl` [Example 127], the chromatographic logP in data set [1] amounted to 2.88. Moreover, the pest or weed control at 100 g/ha in data set [2] came out at 90%; in data set [3], 100%; in data set [4], 100%.
In turn, `Cc1cc(C#N)cc(C(=O)NCC2CC2)c1NC(=O)c1cc(Cn2ncc(C(F)(F)F)n2)nn1-c1ncccc1Cl` [Example 130] displayed a chromatographic logP in data set [1] of 3.17. Further, the pest or weed control at 100 g/ha in data set [2], in data set [3] and in data set [4] was 100% throughout.
On to `Cc1cc(C#N)cc(C(=O)NC2CCC2)c1NC(=O)c1cc(Cn2ncc(C(F)(F)F)n2)nn1-c1ncccc1Cl` [Example 131], for which, in data set [1], the chromatographic logP amounted to 3.23. The pest or weed control at 100 g/ha in data set [2] was 90%; in data set [3] it was 100%; in data set [4], 100%.
`Cc1cc(C#N)cc(C(=O)NCC#N)c1NC(=O)c1cc(Cn2ncc(C(F)(F)F)n2)nn1-c1ncccc1Cl` [Example 132] displayed a chromatographic logP in data set [1] of 2.76. For the same compound, the pest or weed control at 100 g/ha in data set [2], in data set [3] and in data set [4] was 100% in each case.
For the compound `CSC[C@H](C)NC(=O)c1cc(C#N)cc(C)c1NC(=O)c1cc(Cn2ncc(C(F)(F)F)n2)nn1-c1ncccc1Cl` [Example 133], in data set [1], the chromatographic logP was 3.33. Moreover, the pest or weed control at 100 g/ha in data set [2] came out at 90%; in data set [3], 100%; in data set [4], 100%.
`Cc1cc(Cl)cc(C(=O)NC2CC2)c1NC(=O)c1cc(Cn2ncc(C(F)(F)F)n2)nn1-c1ncccc1Cl` [Example 137] showed a chromatographic logP in data set [1] of 3.18. Further, the pest or weed control at 100 g/ha in data set [2], in data set [3] and in data set [4] was 100% throughout.
For `Cc1cc(Cl)cc(C(=O)NC(C)C)c1NC(=O)c1cc(Cn2ncc(C(F)(F)F)n2)nn1-c1ncccc1Cl` [Example 139], the chromatographic logP in data set [1] came out at 3.48. Further, the pest or weed control at 100 g/ha in data set [2] turned out to be 90%; in data set [3], 100%; in data set [4], 100%.
In data set [1], `Cc1cc(Cl)cc(C(=O)NCC#N)c1NC(=O)c1cc(Cn2ncc(C(F)(F)F)n2)nn1-c1ncccc1Cl` [Example 143] returned a chromatographic logP of 2.97. Besides, the pest or weed control at 100 g/ha in data set [2], in data set [3] and in data set [4] was 100% throughout.
On to `CSC[C@H](C)NC(=O)c1cc(Cl)cc(C)c1NC(=O)c1cc(Cn2ncc(C(F)(F)F)n2)nn1-c1ncccc1Cl` [Example 144], for which, in data set [1], the chromatographic logP worked out at 3.74. Also, the pest or weed control at 100 g/ha in data set [2], in data set [3] and in data set [4] was 100% each time.
Regarding `Cc1cc(C#N)cc(C(=O)NC(C)C)c1NC(=O)c1cc(Cn2cc(C(F)(F)F)nn2)nn1-c1ncccc1Cl` [Example 181], the chromatographic logP in data set [1] was 2.67. Further, the figures for the pest or weed control at 100 g/ha in data set [2] and in data set [3] were 90% and 100%, respectively.
As to `CNC(=O)c1cc(Cl)cc(C)c1NC(=O)c1cc(Cn2nc(C(F)(F)F)c(C(F)(F)F)n2)nn1-c1ncccc1Cl` [Example 411], the chromatographic logP in data set [1] was determined as 3.78. Moreover, the pest or weed control at 100 g/ha in data set [3] and in data set [4] was 100% each time.
With `Cc1cc(C#N)cc(C(=O)NC(C)C2CC2)c1NC(=O)c1cc(Cn2nc(C(F)(F)F)c(C(F)(F)F)n2)nn1-c1ncccc1Cl` (stereo not shown) [Example 413], the chromatographic logP in data set [1] (setting [5]) was determined as 4.11. Besides, the pest or weed control at 100 g/ha in data set [3] and in data set [4] was 100% throughout.
